{"source": "patent US7091185B2", "about": "“Periodic antimicrobial peptides” (Dow Global Technologies Inc., priority 2003, dated 2006)", "assay_in_all_cases": "HMARQ biocidal kill activity", "type_in_all_cases": "cell-based", "key": {"[1]": {"system": "Staph. aureus ATCC 6538", "conditions": "Staph. aureus ATCC 6538, 15 min, 3 log kill"}, "[2]": {"system": "Staph. aureus ATCC 6538", "conditions": "Staph. aureus ATCC 6538 (gram+), 24 hr", "method_in_brief": "(§1)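 Inoculated sample matrix (200–300 μL) added to biocide in 96-well blocks alongside untreated controls; for kill-time runs organisms added after biocide. Viable counts by MPN serial 1:10 dilution in TSB with 50 μM resazurin indicator; values are ppm (μg/mL) giving 3.5 log kill versus untreated at 15 min or 24 h.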"}, "[3]": {"system": "P. aeruginosa ATCC 15442", "conditions": "P. aeruginosa ATCC 15442 (gram−)", "method_in_brief": "as §1"}}}
{"substance": "KFAK KFAK KFAK KFAK KFAK KFAK KFAK KFAK KFAK KFAK KFAK KFAK (KFAKKFAKKFAKKFAKKFAKKFAKKFAKKFAKKFAKKFAKKFAKKFAK; Periodic Peptide) [KFAK(12)]", "values": [{"measurement": "ppm at 15 min, cell marked (3 log)", "setting": "[1]", "result": "31(3 log) ppm"}, {"measurement": "ppm needed for 3.5 log kill at 24 hr", "setting": "[2]", "result": ">500", "unit": "ppm"}, {"measurement": "ppm needed for 3.5 log kill at 15 min", "setting": "[3]; 15 min", "result": 16, "unit": "ppm"}, {"measurement": "ppm needed for 3.5 log kill at 24 hr", "setting": "[3]; 24 hr", "result": 31, "unit": "ppm"}]}
